Data on 1 compound can be found in patent US20060148732A1, “Inhibition of NF-kappaB by triterpene compositions” (priority 2000, published 2006).

Assay [1] relates to pGL3-NF-κB in Jurkat cells. In words: NF-κB dependent luciferase gene expression. The settings on record: transfected Jurkat; pretreatment. In kind it is cell-based, human. How it is done:
Transfection and Assay of Luciferase Activity. Jurkat cells were transfected with pGL3-NF-κB by electroporation. The cells were then treated with monoterpene/triterpene glycoside G1 (1 μg/ml) for 16 h. NF-κB was activated using LPS (100 ng/ml), PMA (5 ng/ml), or TNF (1 nM). Luciferase activity was measured using the luciferase assay kit (Promega, Madison, Wis.) as per the manufacturer's instructions.

The test system of another assay is iNOS in RAW 264.7 cells. In words: LPS-induced iNOS expression (western blot). In kind it is cell-based. The settings on record: RAW264.7; 2 μg/ml 16 h; LPS 100 ng/ml. How it is done:
Induction and Measurement of iNOS and COX-2. RAW 264.7 cells (0.5×10^6/ml) were plated in 100 mm dishes and treated with F094 or monoterpene/triterpene glycosides (2 μg/ml) for 16 h. Next, the cells were exposed to 100 ng/ml of LPS for 24 h. Cells were lysed in a buffer containing 50 mM Tris, pH 7.4, 100 mM NaCl, 0.5% NP-40, 10 μg/ml leupeptin, 5 μg/ml aprotinin, and 100 μM PMSF. 70 μg of cellular protein were then loaded on a 7.5% SDS-polyacrylamide gel and electrotransferred onto a nitrocellulose membrane. Levels of iNOS and COX-2 were analyzed by Western blot analysis using rabbit anti-iNOS (Santa Cruz) and goat anti-COX-2 antibodies respectively.
In general terms: In western blotting, separated proteins are transferred to a membrane and probed.

Consider `C=C[C@](C)(O)CC/C=C(\C)C(=O)O[C@H]1[C@H](O)[C@@H](O)[C@H](O[C@@](C)(C=C)CC/C=C(\CO)C(=O)O[C@H]2C[C@]3(C(=O)O[C@@H]4O[C@H](CO)[C@@H](O)[C@H](O)[C@H]4O[C@@H]4O[C@@H](C)[C@H](O[C@@H]5O[C@@H](CO)[C@H](O)[C@H]5O)[C@@H](O[C@@H]5O[C@H](CO)[C@@H](O)[C@H](O)[C@H]5O)[C@H]4O)[C@H](O)C[C@]4(C)C(=CC[C@@H]5[C@@]6(C)CC[C@H](O[C@@H]7O[C@H](CO[C@@H]8O[C@H](C)[C@H](O)[C@H](O)[C@H]8O[C@@H]8OC[C@@H](O)[C@H](O)[C@H]8O)[C@@H](O)[C@H](O)[C@H]7NC(C)=O)C(C)(C)[C@@H]6CC[C@]54C)[C@@H]3CC2(C)C)O[C@@H]1C` [Fraction G1], for which the “luciferase activity induced by LPS, PMA or TNF” value in assay [1] was “significantly inhibited”. For the same compound, the “levels of LPS-induced iNOS” value in the assay with iNOS in RAW 264.7 cells is “decreases the levels of LPS-induced iNOS and COX-2 sharply”.
